# Results taken from publication PMC6171417, “Carbonic anhydrase inhibition with a series of novel benzenesulfonamide-triazole conjugates” (Journal of Enzyme Inhibition and Medicinal Chemistry, 2018).
# Legend:
# Assay in all cases: cells
# Design in all cases: species or system NCI human tumour cell line panel; NCI one-dose anti-proliferative screen, human tumour cell line panel, growth inhibition percent (GI%)
# [1] = tested on: HS 578T; conditions: Homo sapiens, Hs-578T; growth inhibition (GI%), single dose
# Procedure: (§1) Ten of the newly synthesised 1,2,3-triazolo benzenesulfonamide derivatives were selected by NCI (Bethesda, MD) for evaluating their anti-proliferative activity. The selected compounds were subjected to a primary in vitro one-dose ([…]) anti-proliferative assay against 57 human tumour cell lines following the previously reported method[30] and their obtained growth inhibition percent (GI%) are presented in Table 2. A subset of ten triazolo-benzenesulfonamides (3, 5, 6, 7, 9, 11, 16–18, and 20) were selected and subjected to an in vitro anti-proliferative screening against a panel of 57 cancer cell lines at NCI at an initial high dose ([…]). The human cell lines used were derived from nine cancer types: leukaemia, lung, colon, CNS, melanoma, ovarian, renal, prostate and breast cancers.
# [2] = tested on: LOX IMVI; conditions: Homo sapiens, LOX IMVI; growth inhibition (GI%), single dose
# Procedure: as §1
# [3] = tested on: HOP-92; conditions: Homo sapiens, HOP-92; growth inhibition (GI%), single dose
# Procedure: as §1
# [4] = tested on: MCF7; conditions: Homo sapiens, MCF7; growth inhibition (GI%), single dose
# Procedure: as §1
# [5] = tested on: U251; conditions: Homo sapiens, U-251; growth inhibition (GI%), single dose
# Procedure: as §1
# [6] = tested on: NCI-H522; conditions: Homo sapiens, NCI-H522; growth inhibition (GI%), single dose
# Procedure: as §1
# [7] = tested on: SR; conditions: Homo sapiens, SR; growth inhibition (GI%), single dose
# Procedure: as §1
# [8] = tested on: CCRF-CEM; conditions: Homo sapiens, CCRF-CEM; growth inhibition (GI%), single dose
# Procedure: as §1
# [9] = tested on: RPMI-8226; conditions: Homo sapiens, RPMI-8226; growth inhibition (GI%), single dose
# Procedure: as §1
# [10] = tested on: T-47D; conditions: Homo sapiens, T47D; growth inhibition (GI%), single dose
# Procedure: as §1
# [11] = tested on: UACC-62; conditions: Homo sapiens, UACC-62; growth inhibition (GI%), single dose
# Procedure: as §1
# [12] = tested on: NCI-H226; conditions: Homo sapiens, NCI-H226; growth inhibition (GI%), single dose
# Procedure: as §1
# [13] = tested on: A498; conditions: Homo sapiens, A498; growth inhibition (GI%), single dose
# Procedure: as §1
# [14] = tested on: UACC-257; conditions: Homo sapiens, UACC-257; growth inhibition (GI%), single dose
# Procedure: as §1
# [15] = tested on: UO-31; conditions: Homo sapiens, UO-31; growth inhibition (GI%), single dose
# Procedure: as §1
# [16] = tested on: SN12C; conditions: Homo sapiens, SN12C; growth inhibition (GI%), single dose
# Procedure: as §1
# [17] = tested on: NCI-H322M; conditions: Homo sapiens, NCI-H322M; growth inhibition (GI%), single dose
# Procedure: as §1
# [18] = tested on: NCI-H23; conditions: Homo sapiens, NCI-H23; growth inhibition (GI%), single dose
# Procedure: as §1
# [19] = tested on: PC-3; conditions: Homo sapiens, PC-3; growth inhibition (GI%), single dose
# Procedure: as §1
# [20] = tested on: HOP-62; conditions: Homo sapiens, HOP-62; growth inhibition (GI%), single dose
# Procedure: as §1
structure (smiles),measurement,setting,value
"CN(C)c1ccc(-c2nc3c(nnn3-c3ccc(S(N)(=O)=O)cc3)c(N)c2C#N)cc1 [compound 17, 4-(7-amino-6-cyano-5-(4-(dimethylamino)phenyl)-3H-[1,2,3]triazolo[4,5-b]pyridin-3-yl)benzenesulfonamide]",inhibition at 10 µM,[1],2.9%
same,inhibition at 10 µM,[2],9.6%
same,inhibition at 10 µM,[3],18.5%
same,inhibition at 10 µM,[4],7.3%
same,inhibition at 10 µM,[5],12.6%
same,inhibition at 10 µM,[6],14.8%
same,inhibition at 10 µM,[7],3.2%
same,inhibition at 10 µM,[8],11.4%
same,inhibition at 10 µM,[9],12.5%
same,inhibition at 10 µM,[10],5.2%
same,inhibition at 10 µM,[11],11.6%
same,inhibition at 10 µM,[12],16.9%
same,inhibition at 10 µM,[13],1.8%
same,inhibition at 10 µM,[14],8.4%
same,inhibition at 10 µM,[15],29.9%
same,inhibition at 10 µM,[16],4.7%
same,inhibition at 10 µM,[17],3.9%
same,inhibition at 10 µM,[18],9.8%
same,inhibition at 10 µM,[19],13.8%
same,inhibition at 10 µM,[20],21.7%
